# Experiments:
# [1] = test system: 92.1 cells; experiment: Melanocytic re-differentiation (morphology, pigmentation, immunostaining); assay type: cell-based, Human; details: 7 d GSK503 and 3 d FR
# Protocol: FIG. 5A Morphological changes elicited by FR. UM cell lines were treated 3 d with FR and imaged by phase contrast microscopy. FR caused UM cells driven by constitutively active Gαq (92.1 and Mel202) to lose their characteristic spindle shaped and assume a stellate shape with multiple projections. FR had no effect on BRAF-driven UM cells (OCM-1A). FIG. 5B Melanocytic differentiation of FR-treated UM cells indicated by pigmentation. UM cell lines were treated 3 d with FR. Cells were pelleted and examined macroscopically. […] Scale bar=50 μm.
# (§1) Gαq-mutant 92.1 UM cells were treated with FR or vehicle, and RNA was collected 1 and 3 d after treatment for RNA-Seq analysis. FIG. 7A Unsupervised principal component analysis identified FR treatment and time in culture as the two main separable factors contributing to changes in gene expression. […] FIG. 7D FR-repressed genes identified as targets of the polycomb repressive complex 2 by Geneset enrichment analysis. FIG. 7E The Ezh1/2 inhibitor GSK503 blocks the morphological differentiation elicited by FR. 92.1 UM cells were treated 7 d with GSK503 and 3 d with FR and then imaged by phase contrast microscopy. […] 92.1 cells were treated 7 d with GSK503 and 3 d with FR and pelleted. FIG. 7G PRC2 inhibition by GSK503.
# Cell fixation was carried out by adding an equal volume of 2×fixative (PBS with 4% paraformaldehyde and 0.4% glutaraldehyde) to UM cells in RPMI growth medium. After 15 min at 37° C., cells were permeabilized with 0.1% Triton X-100 in PBS for 5 min, washed with PBS, and blocked with 2% fish gelatin (Sigma-Aldrich) in PBS. Primary and secondary antibodies were diluted in 2% fish gelatin in PBS. Primary antibodies included mouse monoclonal anti-pre-melanosomal protein (One World Lab, San Diego, Calif.), rabbit polyclonal anti-tyrosinase (One World Lab), rabbit polyclonal anti-dopachrome tautomerase (One World Lab), rabbit polyclonal anti-S100 (DakoCytomation, Denmark), and mouse monoclonal anti-BrdU (Life Technologies). Secondary antibodies were Alexa-fluor conjugates (Life Technologies), and the mounting agent was ProLong Gold (Life Technologies). Cell morphology was assessed by phase contrast imaging with an inverted microscope (Olympus IX72) using a 10×objective.
# [2] = test system: 92.1 cells; experiment: Immunoblot of histone H3 lysine 27 trimethylation (PRC2 inhibition); assay type: cell-based, Human; details: 7 d GSK503, FIG. 7G
# Protocol: as §1
# For standard immunoblots, cells were lysed and cleared in radioimmunoprecipitation assay buffer (150 mM sodium chloride, 1% Triton-X100, 0.5% sodium deoxycholate, 0.1% sodium dodecyl sulfate, 50 mM Tris, pH 8.0) with 1×Complete Protease Inhibitor (Roche, cat.11697498001). Histones were isolated from cells using the Active Motif Histone Purification Mini Kit (cat.40026, Active Motif, Carlsbad, Calif.). Lysates were resolved on 15% SDS-PAGE gels and transferred to Immobilon(P) PVDF membrane (Milipore, cat.IPVH00010). […] Following incubation, membranes were washed at least three times with TBST and signals were detected using LI-COR Odyssey model 9120 imaging system (LI-COR). […]
smiles,measurement,setting,value
"Cc1cc(C)c(CNC(=O)c2cc(-c3ccc(N4CCN(C)CC4)nc3)cc3c2c(C)cn3C(C)C)c(=O)[nH]1 [GSK503, reference compound]",FR-induced re-differentiation (morphology),[1]; FIG. 7E,blocked the ability of FR to re-differentiate these cells
same,pigmentation of FR-treated cells,[1]; FIG. 7F,decreased pigmentation
same,histone H3 lysine 27 trimethylation (immunoblot),[2],reduced histone H3 lysine 27 trimethylation
